Measured values taken from patent US11299472B2, “Fumarate salt of (R)-3-(1-(2,3-dichloro-4-(pyrazin-2-yl)phenyl)-2,2,2- trifluoroethyl)-1-methyl-1-(1-methylpiperidin-4-yl) urea, methods of preparation, and uses thereof” (Helsinn Healthcare SA, priority 2017, dated 2022).

How the values were obtained:
[1] = system: Snord116+/− (Het) mice and wild-type (WT) littermates; assay: Glucose tolerance in Prader-Willi mouse model; type: in vivo
From the text: The effect of HM04 fumarate salt on food intake behavior and glucose tolerance was investigated in the Snord116+/−(Het) mouse genetic model of Prader-Willi syndrome (Het mouse) compared to wild-type (WT) littermates. Since D2R agonists suppress food intake, the FDA approved D2R agonist cabergoline was used as an experimental control. Phenotypic characteristics of this PWS mouse model include hyperphagia, postnatal growth retardation, high ghrelin, and low growth hormone. Ding F., et al. SnoRNA Snord116 (Pwcr1/MBII-85) deletion causes growth deficiency and hyperphagia in mice. PloS one. 2008; 3(3):e1709. These PWS mice eat more frequently than WT littermates, particularly during the light cycle and are more motivated to work for food (more level presses) (data not shown).

[2] = target: T1, human GHSR1a receptor (Homo sapiens, UniProt Q92847); assay: Antagonist FLIPR assay in HEK293 cells; type: cell-based; details: HEK293 cells expressing human GHSR1a, in duplicate, HM04 tested as fumarate salt
T1 construct: expressed in transfected cells; host or cells: HEK293
T1 sequence (Q92847 whole entry): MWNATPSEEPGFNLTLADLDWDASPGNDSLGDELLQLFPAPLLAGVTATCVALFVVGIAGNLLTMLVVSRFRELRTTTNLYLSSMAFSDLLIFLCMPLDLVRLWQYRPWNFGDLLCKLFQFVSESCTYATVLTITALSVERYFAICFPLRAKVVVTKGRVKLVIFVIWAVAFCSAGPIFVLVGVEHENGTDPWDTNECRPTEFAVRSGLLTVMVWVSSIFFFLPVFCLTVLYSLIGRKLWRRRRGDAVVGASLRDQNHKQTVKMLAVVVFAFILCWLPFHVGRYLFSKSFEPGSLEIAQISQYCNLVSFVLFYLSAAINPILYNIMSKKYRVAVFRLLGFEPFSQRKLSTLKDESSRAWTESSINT
Protocol: The compounds were diluted with 100% DMSO to make 30 mM stock. On the test day, serial dilutions were prepared starting from the stock solution. For the FLIPR assay: 1) 8 μl of DMSO was added to 2 μl of compound stock solution (30 mM) to produce 10 μl of 6 mM solution; half-fold serial dilutions of the 6 mM solution were produced to generate ten doses; 2) test solutions were obtained by diluting the stock solutions 1/40 in assay buffer (DMSO concentration 2.5%). […]
For the agonist and antagonist activity study, HEK293 cells stably expressing human GHSR1a receptor were used in a (FLIPR) assay. […] Fluorescence signal was detected with FLIPR at room temperature according to standard settings for 10 minutes before cells were exposed to 10 μl of 5× working concentrations of agonists (compound added by FLIPR). The fluorescence signal was detected in the subsequent 3 minutes (antagonist mode).
Data were reported as relative light units (RLUs) and analyzed using GraphPad Software Inc. version 6. The half maximal inhibitory concentration (IC50) measured for HM04 and R011 were calculated by non-linear regression analysis.

[3] = system: ghrelin-induced increase of GH; assay: Ghrelin-induced increase of growth hormone in rats; type: in vivo; details: 30 mg/kg HM04 fumarate salt p.o. 2 hours before 15 μg/kg ghrelin i.v., 15 minutes after ghrelin
Protocol: Rats were divided into four groups: 1) 1 ml/kg saline plus 10 ml/kg 0.5% CMC p.o. (n=6); 2) 15 μg/kg ghrelin i.v. plus 10 ml/kg 0.5% CMC p.o. (n=6); 3) 30 mg/kg HM04 fumarate salt p.o. 2 hours before 15 μg/kg ghrelin i.v. (n=6); 4) 10 mg/kg ghrelin antagonist R011 i.p. 30 minutes before 15 μg/kg ghrelin i.v. (n=6). Blood was collected as 100 μl samples at time 0 and at 15 minutes after ghrelin injection. Rats were anesthetized with 64.8 mg/kg sodium pentobarbital. A catheter filled with heparinized saline solution was inserted in the left femoral artery for blood collection and fitted with an extension tube, 1-mL sampling syringe, and a 3-way cock to allow excess blood to return.
Plasma levels of growth hormone (GH) were determined using Rat GH ELISA (Millipore, Catalog No. EZRMGH-45K). Measurements were performed in duplicate. […] One-way and two-way ANOVA test was used to compare differences between groups. All values are presented as mean±SEM. One-way ANOVA was performed followed by Turkey's post hoc test where significance was indicated by p values<0.05 or p values<0.01.

[4] = Rat pharmacokinetic study, HM04 free base vs HM04 fumarate salt (Example 9); type: in vivo, male Sprague Dawley rats; details: 3 mg/kg oral, mean ± S.D., n=3
Protocol: The pharmacokinetics of HM04 in plasma of male Sprague Dawley rats dosed with a single oral administration of 3 mg/kg HM04 (based on the weight of the free base) formulated in a solution of 10% DMAC, 6% Solutol, and 84% PBS using either the HM04 free base or HM04 fumarate salt were compared. Blood samples were withdrawn at set time intervals and plasma concentration of HM04 was measured by LC-MS/MS. A comparison of the plasma concentration of HM04 (ng/mL) over time in rats dosed orally with HM04 free base and HM04 fumarate salt is provided in FIG. 17.

[5] = as above; type: in vivo, male Sprague Dawley rats

Row | IC50 [2] [nM] | HM04 plasma concentration ([4]; 0.50 hours) [ng/mL] | HM04 plasma concentration ([4]; 1 hour) [ng/mL] | HM04 plasma concentration ([4]; 2 hours) [ng/mL] | HM04 plasma concentration ([4]; 8 hours) [ng/mL] | AUC(0-t) ([4]; male, Sprague Dawley, plasma) [ng·h/mL] | Tmax ([4]; male, Sprague Dawley, plasma) [min] | HM04 plasma concentration ([5]; 3 mg/kg oral, 0.25 hours, mean ± S.D., n=3) [ng/mL] | HM04 plasma concentration ([5]; 3 mg/kg oral, 4 hours, mean ± S.D., n=3) [ng/mL] | AUC ([5]; male, Sprague Dawley, plasma, 3 mg/kg intravenous, three rats, read-out: mean AUC following intravenous administration) [ng·h/mL] | bioavailability ([5]; male, Sprague Dawley, plasma, 3 mg/kg oral vs 3 mg/kg intravenous mean AUC) [%] | Cmax ([5]; male, Sprague Dawley, plasma, 3 mg/kg oral, mean ± S.D., n=3) [ng/mL] | Compound | glucose tolerance ([1]; Het mice) | glucose tolerance ([1]; WT mice) | inhibition of ghrelin-induced increase of GH [3] [%]
1 | 7.31 |  |  |  |  |  |  |  |  |  |  |  | CN1CCC(N(C)C(=O)N[C@H](c2ccc(-c3cnccn3)c(Cl)c2Cl)C(F)(F)F)CC1 [HM04, (R)-3-(1-(2,3-dichloro-4-(pyrazin-2-yl)phenyl)-2,2,2-trifluoroethyl)-1-methyl-1-(1-methylpiperidin-4-yl)urea] | did not show an improvement in glucose tolerance | an effect was observed | 35
2 |  | 325.9 ± 187.8 | 201.0 ± 38.7 | 173.9 ± 12.2 | 42.3 ± 2.5 | 970 ± 147 | 49.8 ± 17.4 | 107.8 ± 27.8 | 108.3 ± 38.3 | 2100 ± 358 | 46.1 ± 6.99 | 329 ± 185 | CN1CCC(N(C)C(=O)N[C@H](c2ccc(-c3cnccn3)c(Cl)c2Cl)C(F)(F)F)CC1.O=C(O)/C=C/C(=O)O [HM04 fumarate salt, (R)-3-(1-(2,3-dichloro-4-(pyrazin-2-yl)phenyl)-2,2,2-trifluoroethyl)-1-methyl-1-(1-methylpiperidin-4-yl)urea fumarate salt] |  |  | 
